Reference: ChEMBL document CHEMBL1158021, “Okaramines H and I, new okaramine congeners, from aspergillus aculeatus” (1999)

What follows are molecules tested on Bombyx mori (assay: Insecticidal activity against third instar larvae of silkworm assessed per gm diet).
Assay type: functional

Row | SMILES | LD50 [µg]
1 | CC(C)=CCN1c2ccccc2[C@]2(O)C[C@@H]3C(=O)N4/C=C\C(C)(C)c5[nH]c6ccccc6c5/C=C\4C(=O)N3[C@H]12 [OKARAMINE H] | >100
2 | C=CC(C)(C)N1c2ccccc2[C@]2(O)C[C@@H]3C(=O)N4/C=C\C(C)(C)c5[nH]c6ccccc6c5/C=C\4C(=O)N3[C@H]12 [OKARAMINE A] | 8
3 | CO[C@@H]1[C@]2(O)C(=O)N3/C=C\C(C)(C)c4[nH]c5ccccc5c4/C=C\3C(=O)N2[C@]23[C@H](C)C(C)(C)N2c2ccccc2[C@]13O [OKARAMINE B] | 0.2
4 | CC1(C)/C=C\N2C(=O)[C@H]3C[C@@]4(O)c5ccccc5N[C@H]4N3C(=O)/C2=C/c2c1[nH]c1ccccc21 [OKARAMINE I] | >100
